Measured values from PubChem BioAssay (NCI).
Values joined by “and” are separate entries in the source; they are usually repeats but may differ in a detail not shown here. Identical values can stand only once.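 How tested: cells in 96-well plates exposed to compound for 48 hours at five concentrations. Here, GI50 denotes the concentration required for 50% inhibition of growth. TGI denotes the concentration required for complete inhibition of growth.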

Columns and labels:
Test in all cases: NCI tumour cell line growth inhibition, 48 h
[1] = tested on: DMS 273 small cell lung
[2] = tested on: K-562 leukemia
[3] = tested on: SF-539 CNS
[4] = tested on: DLD-1 colon
[5] = tested on: DMS 114 small cell lung
[6] = tested on: A549 NSCLC
[7] = tested on: SF-268 CNS
[8] = tested on: NCI-H226 lung
[9] = tested on: HT29 colon
[10] = tested on: 786-0 renal
[11] = tested on: BT-549 breast

Row | SMILES | TGI [1] [µM] | TGI [2] [µM] | TGI [3] [µM] | TGI [4] [µM] | TGI [5] [µM] | TGI [6] [µM] | TGI [7] [µM] | TGI [8] | TGI [9] [µM] | TGI [10] [µM] | GI50 [3] [µM] | TGI [11] [µM] | GI50 [5] [µM] | GI50 [6] [µM] | GI50 [7] [µM] | GI50 [8] [µM] | GI50 [10] [µM]
1 | Cc1ccc(S(=O)OC23CC4CC(CC(C4)C2)C3)cc1 (configuration not stated) | > 100 | > 100 | > 100 | > 100 | > 100 | > 100 | > 100 | > 100 µM | > 100 | > 100 |  |  |  |  |  |  | 
2 | COc1ccc(C(=O)O/N=C2/CCC/C2=C\c2ccccc2)cc1 | > 100 | > 100 | 99.6 | > 100 | > 100 | > 100 | > 100 | > 100 µM | > 100 | > 100 |  |  |  |  |  |  | 
3 | Nc1c(-c2nc3ccccc3[nH]2)sc(=S)n1-c1ccc(Cl)cc1 | 39.8 | > 100 | 37.2 | > 100 | 42 | 51.1 | 54.9 | 52.2 µM | 42.6 | 36.7 |  |  |  |  |  |  | 
4 | NS(=O)(=O)c1ccc(NC(=O)COC(=O)c2cccc3c(=O)c4ccccc4[nH]c23)cc1 | > 95.1 | > 100 | 32.7 | > 100 | 52.3 | > 100 | 36.9 | 61.1 µM | > 100 | 45.3 |  |  |  |  |  |  | 
5 | CC(C)(C)OC(=O)N1N=NC2C3OC(CC3=O)C21 (configuration not stated) | > 100 | > 100 | > 100 | > 100 | > 100 | > 100 | > 100 | 8.96 µM | > 100 | > 100 |  |  |  |  |  |  | 
6 | NC(=O)N/N=C(/c1nc2ccc([N+](=O)[O-])cc2[nH]c1=O)C(O)c1ccco1 (configuration not stated) | > 100 | > 100 | 30.9 | > 100 | > 100 | > 100 | > 100 | > 100 µM | > 100 | > 100 |  |  |  |  |  |  | 
7 | CC(C)N(C(C)C)P(OCCC#N)OC1CC(n2cnc3c(=O)[nH]cnc32)OC1COC(=O)NCCCCCCNC(=O)OC(C)(C)c1ccc(-c2ccccc2)cc1 (configuration not stated) | 32.1 | 37.5 | 44.3 | > 100 | 41.6 | > 100 | 57.5 | 55.2 µM | > 100 | 54.7 |  |  |  |  |  |  | 
8 | Cc1ccc(NC(=O)CCC(=O)C(C#N)c2ccccc2)cc1C (configuration not stated) | > 100 | > 100 | > 100 | > 100 | > 100 | > 100 | > 100 | > 100 µM | > 100 | > 100 |  |  |  |  |  |  | 
9 | COC(=O)C1C2CC3C(OC(=O)C31)C2OC(=O)[C@](OC)(c1ccccc1)C(F)(F)F (some centres not stated) | > 100 | > 100 | > 100 | > 100 | > 100 | > 100 | > 100 | > 100 µM | > 100 | > 100 |  |  |  |  |  |  | 
10 | COC(=O)Cc1nc2ccccc2o1 | > 100 | > 100 | > 100 | > 100 | > 100 | > 100 | > 100 | > 100 µM | > 100 | > 100 |  |  |  |  |  |  | 
11 | COc1cc(C2c3cc4c(cc3[C@@H](Nc3ccc(N)cc3)C3COC(=O)[C@H]23)OCO4)cc(OC)c1O (some centres not stated) | 5.39 | 46.3 | 6.51 | 22.2 | 8.77 | 3.46 | 19.3 | 0.868 µM and 4.7 µM | 54 | 4.43 | 0.729 | 8.5 | 0.911 | 0.317 | 0.89 | 0.336 | 0.514
